Assay results reported in patent publication US20230025510A1, “BIARYL ETHER-TYPE QUINAZOLINE DERIVATIVES” (DAIICHI SANKYO COMPANY, LIMITED, priority 2018, published 2023).

Experiments:
Assay type in all cases: cell-based
Ba/F3-Mock cells = test: Cell proliferation suppression test (CellTiter-Glo, GI50), Ba/F3-Mock; settings: Mus musculus, BaF3, 72 h, 5 ng/mL IL-3, 3 days, N=4
Method: (§1) Cell proliferation suppression test Ba/F3-Mock, Ba/F3-EGFR WT, Ba/F3-EGFR ins. ASV, and Ba/F3-EGFR ins. SVD cell lines were cultured based on a culture medium of 10% FBS-containing RPMI 1640 supplemented with 1.5 ug/mL puromycin, and 5 ng/mL IL-3 and 100 ng/mL of EGF were further added to the culture solution for Ba/F3-Mock and Ba/F3-EGFR WT, respectively. The cells were cultured in a CO2 incubator set at 37° C., 5% CO2. Specimens prepared by dilution were seeded into 384-well tissue culture plates with Echo555 (Labcyte Inc.), and the cells were seeded thereto at 400 cells/well for Ba/F3-Mock, Ba/F3-EGFR WT, and Ba/F3-EGFR ins. SVD and at 200 cells/well for Ba/F3-EGFR ins. ASV (day 0), then they were cultured for an additional 3 days. On the day of the compound addition (day 0) and 3 days after the compound addition (day 3), ATP quantity was measured with CellTiter-Glo (registered trademark) 2.0 (Promega Corporation.), and used as an indicator of cell quantity (N=4). In the test, puromycin-free culture medium was used. Concentrations at which cell proliferation from day 0 to day 3 was inhibited by 50% (GIso) were calculated with EXCEL.

Ba/F3-EGFR WT cells = test: Cell proliferation suppression test (CellTiter-Glo, GI50), Ba/F3-EGFR WT; settings: Mus musculus, 72 h, 100 ng/mL EGF, 3 days, N=4
Method: as §1

[1] = system: Ba/F3-EGFR ins. ASV cells; test: Cell proliferation suppression test (CellTiter-Glo, GI50), Ba/F3-EGFR ins. ASV; settings: Mus musculus, 72 h, 3 days, N=4
Method: as §1

[2] = system: Ba/F3-EGFR ins. SVD cells; test: Cell proliferation suppression test (CellTiter-Glo, GI50), Ba/F3-EGFR ins. SVD; settings: Mus musculus, 72 h, 3 days, N=4
Method: as §1

| Structure (SMILES) | GI50 (Ba/F3-Mock cells) [nM] | GI50 (Ba/F3-EGFR WT cells) [nM] | GI50 [1] [nM] | GI50 [2] [nM] |
| --- | --- | --- | --- | --- |
| COc1cc2ncnc(Nc3ccc(Oc4nn(CC(=O)NC(C)(C)C)cc4F)cc3Cl)c2cc1NC(=O)/C=C/CN1CCC(F)C1 (racemic) [Example 55, rac-(2E)-N-{4-[4-({1-[2-(tert-Butylamino)-2-oxoethyl]-4-fluoro-1H-pyrazol-3-yl}oxy)-2-chloroanilino]-7-methoxyquinazolin-6-yl}-4-(3-fluoropyrrolidin-1-yl)but-2-enamide] | 4290 | 441 | 12.9 | 10.3 |
| COc1cc2ncnc(Nc3ccc(Oc4nn(CC(=O)NC(C)(C)C)cc4F)cc3F)c2cc1NC(=O)/C=C/CN1CCC(F)C1 (racemic) [Example 58, rac-(2E)-N-{4-[4-({1-[2-(tert-Butylamino)-2-oxoethyl]-4-fluoro-1H-pyrazol-3-yl}oxy)-2-fluoroanilino]-7-methoxyquinazolin-6-yl}-4-(3-fluoropyrrolidin-1-yl)but-2-enamide] | 4010 | 252 | 10.3 | 6.7 |
| C=CC(=O)N1CCC(Oc2cc3c(Nc4ccc(Oc5cccc(C(=O)NC(C)(C)C)c5)cc4F)ncnc3cc2OC)CC1 [Example 1, N-tert-Butyl-3-{3-fluoro-4-[(7-methoxy-6-{[1-(prop-2-enoyl)piperidin-4-yl]oxy}quinazolin-4-yl)amino]phenoxy}benzamide] | 7900 | 115 | 15.5 | 8.9 |
| C=CC(=O)N1CCC(Oc2cc3c(Nc4ccc(Oc5cccc(-c6cn(C)nn6)c5)cc4F)ncnc3cc2OC)CC1 [Example 2] | 9530 | 123 | 13.9 | 13.7 |
| C=CC(=O)N1CCC(Oc2cc3c(Nc4ccc(Oc5cccc(-c6cn(C)nn6)c5)cc4Cl)ncnc3cc2OC)CC1 [Example 3, 1-{4-[(4-{2-Chloro-4-[3-(1-methyl-1H-1,2,3-triazol-4-yl)phenoxy]anilino}-7-methoxyquinazolin-6-yl)oxy]piperidin-1-yl}prop-2-en-1-one] | 9930 | 370 | 40.6 | 30 |
| C=CC(=O)N1CCC(Oc2cc3c(Nc4ccc(Oc5ccn(C(=O)NC(C)(C)C)n5)cc4F)ncnc3cc2OC)CC1 [Example 4, N-tert-Butyl-3-{3-fluoro-4-[(7-methoxy-6-{[1-(prop-2-enoyl)piperidin-4-yl]oxy}quinazolin-4-yl)amino]phenoxy}-1H-pyrazole-1-carboxamide] | 7610 | 78.3 | 7.4 | 5 |
| C=CC(=O)N1CCC(Oc2cc3c(Nc4ccc(Oc5ccn(C(=O)NC(C)(C)CF)n5)cc4F)ncnc3cc2OC)CC1 [Example 5, 3-{3-Fluoro-4-[(7-methoxy-6-{[1-(prop-2-enoyl)piperidin-4-yl]oxy}quinazolin-4-yl)amino]phenoxy}-N-(1-fluoro-2-methylpropan-2-yl)-1H-pyrazole-1-carboxamide] | > 10000 | 77.1 | 5.4 | 4.3 |
| C=CC(=O)N1CCC(Oc2cc3c(Nc4ccc(Oc5ccn(C(=O)NC(C)C)n5)cc4F)ncnc3cc2OC)CC1 [Example 6, 3-{3-Fluoro-4-[(7-methoxy-6-{[1-(prop-2-enoyl)piperidin-4-yl]oxy}quinazolin-4-yl)amino]phenoxy}-N-(propan-2-yl)-1H-pyrazole-1-carboxamide] | 5660 | 175 | 19.2 | 19.2 |
| C=CC(=O)N1CCC(Oc2cc3c(Nc4cc(F)c(Oc5ccn(C(=O)NC(C)(C)C)n5)cc4F)ncnc3cc2OC)CC1 [Example 7, N-tert-Butyl-3-{2,5-difluoro-4-[(7-methoxy-6-{[1-(prop-2-enoyl)piperidin-4-yl]oxy}quinazolin-4-yl)amino]phenoxy}-1H-pyrazole-1-carboxamide] | 5900 | 191 | 39.4 | 19.6 |
| C=CC(=O)N1CCC(Oc2cc3c(Nc4ccc(Oc5ccn(C(=O)NC6(C)CC6)n5)cc4F)ncnc3cc2OC)CC1 [Example 8, 3-{3-Fluoro-4-[(7-methoxy-6-{[1-(prop-2-enoyl)piperidin-4-yl]oxy}quinazolin-4-yl)amino]phenoxy}-N-(1-methylcyclopropyl)-1H-pyrazole-1-carboxamide] | 7160 | 172 | 19.8 | 19.7 |
| C=CC(=O)N1CCC(Oc2cc3c(Nc4ccc(Oc5ccn(-c6ccnc(OC)c6)n5)cc4F)ncnc3cc2OC)CC1 [Example 9, 1-(4-{[4-(2-Fluoro-4-{[1-(2-methoxypyridin-4-yl)-1H-pyrazol-3-yl]oxy}anilino)-7-methoxyquinazolin-6-yl]oxy}piperidin-1-yl)prop-2-en-1-one] | 9590 | 280 | 17.1 | 15.3 |
| C=CC(=O)N1CCC(Oc2cc3c(Nc4ccc(Oc5ccn(-c6cnc(C7CC7)nc6)n5)cc4F)ncnc3cc2OC)CC1 [Example 10, 1-(4-{[4-(4-{[1-(2-cyclopropylpyrimidin-5-yl)-1H-pyrazol-3-yl]oxy}-2-fluoroanilino)-7-methoxyquinazolin-6-yl]oxy}piperidin-1-yl)prop-2-en-1-one] | 6170 | 212 | 11.9 | 7.6 |
| C=CC(=O)N1CCC(Oc2cc3c(Nc4ccc(Oc5nc(-c6cnc(C)c(F)c6)cs5)cc4F)ncnc3cc2OC)CC1 [Example 11, 1-(4-{[4-(2-Fluoro-4-{[4-(5-fluoro-6-methylpyridin-3-yl)-1,3-thiazol-2-yl]oxy}anilino)-7-methoxyquinazolin-6-yl]oxy}piperidin-1-yl)prop-2-en-1-one] | > 10000 | 290 | 11.3 | 12.5 |
| C=CC(=O)N1CCC(Oc2cc3c(Nc4ccc(Oc5nc(-c6cnc(C)c(Cl)c6)cs5)cc4F)ncnc3cc2OC)CC1 [Example 12, 1-(4-{[4-(4-{[4-(5-Chloro-6-methylpyridin-3-yl)-1,3-thiazol-2-yl]oxy}-2-fluoroanilino)-7-methoxyquinazolin-6-yl]oxy}piperidin-1-yl)prop-2-en-1-one] | > 10000 | 646 | 44.8 | 29.8 |
| C=CC(=O)N1CCC(Oc2cc3c(Nc4ccc(Oc5cccc(-c6nnc(C)o6)c5)cc4Cl)ncnc3cc2OC)CC1 [Example 13, 1-{4-[(4-{2-Chloro-4-[3-(5-methyl-1,3,4-oxadiazol-2-yl)phenoxy]anilino}-7-methoxyquinazolin-6-yl)oxy]piperidin-1-yl}prop-2-en-1-one] | 8280 | 854 | 44.5 | 54.1 |
| C=CC(=O)N1CCC(Oc2cc3c(Nc4ccc(Oc5ccn(-c6cnc(OC)nc6)n5)cc4F)ncnc3cc2OC)CC1 [Example 14, 1-(4-{[4-(2-Fluoro-4-{[1-(2-methoxypyrimidin-5-yl)-1H-pyrazol-3-yl]oxy}anilino)-7-methoxyquinazolin-6-yl]oxy}piperidin-1-yl)prop-2-en-1-one] | 5950 | 429 | 13.7 | 13.5 |
| C=CC(=O)N1CCC(Oc2cc3c(Nc4ccc(Oc5nc(C(=O)NC(C)(C)C)cs5)cc4F)ncnc3cc2OC)CC1 [Example 15, N-tert-Butyl-2-{3-fluoro-4-[(7-methoxy-6-{[1-(prop-2-enoyl)piperidin-4-yl]oxy}quinazolin-4-yl)amino]phenoxy}-1,3-thiazole-4-carboxamide] | > 10000 | 77.3 | 12.2 | 5.5 |
